The text below walks through data of patent US20040259926A1, “3-Aryloxy and 3-heteroaryloxy substituted benzo[b]thiophenes as therapeutic agents” (priority 2003, published 2004).

pIC50: −log10 of the molar value.

The target in this assay is T1, PI3Kγ (recombinant p101/p110γ protein) (Homo sapiens, UniProt P48736).
T1 construct: HA; made in house; host or cells: Spodoptera frugiperda (Sf9) cells, baculovirus co-infection
Nature of the assay: PI3Kγ In Vitro Kinase Assay. As to conditions: purified recombinant p101/p110γ with G protein β1/γ2 subunits; 20 μM ATP, [γ-32P-ATP]; 25 μM PIP2 lipid micelles; 20 minutes at room temperature. It counts as biochemical. The essentials:
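Baculovirus/Sf9-expressed p101/p110γ (~2.7 nM) with Gβ1/γ2 (~57.7 nM) in HEPES/NaCl/EGTA/DTT buffer; 20 μM ATP plus [γ-32P]ATP, micelles of 25 μM PIP2, 300 μM PE, 10 mM MgCl2. Reactions ran 20 minutes at room temperature; radiolabelled PIP3 captured on glass-fibre filters and counted for IC50.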

T1 sequence (P48736 whole entry, species assumed): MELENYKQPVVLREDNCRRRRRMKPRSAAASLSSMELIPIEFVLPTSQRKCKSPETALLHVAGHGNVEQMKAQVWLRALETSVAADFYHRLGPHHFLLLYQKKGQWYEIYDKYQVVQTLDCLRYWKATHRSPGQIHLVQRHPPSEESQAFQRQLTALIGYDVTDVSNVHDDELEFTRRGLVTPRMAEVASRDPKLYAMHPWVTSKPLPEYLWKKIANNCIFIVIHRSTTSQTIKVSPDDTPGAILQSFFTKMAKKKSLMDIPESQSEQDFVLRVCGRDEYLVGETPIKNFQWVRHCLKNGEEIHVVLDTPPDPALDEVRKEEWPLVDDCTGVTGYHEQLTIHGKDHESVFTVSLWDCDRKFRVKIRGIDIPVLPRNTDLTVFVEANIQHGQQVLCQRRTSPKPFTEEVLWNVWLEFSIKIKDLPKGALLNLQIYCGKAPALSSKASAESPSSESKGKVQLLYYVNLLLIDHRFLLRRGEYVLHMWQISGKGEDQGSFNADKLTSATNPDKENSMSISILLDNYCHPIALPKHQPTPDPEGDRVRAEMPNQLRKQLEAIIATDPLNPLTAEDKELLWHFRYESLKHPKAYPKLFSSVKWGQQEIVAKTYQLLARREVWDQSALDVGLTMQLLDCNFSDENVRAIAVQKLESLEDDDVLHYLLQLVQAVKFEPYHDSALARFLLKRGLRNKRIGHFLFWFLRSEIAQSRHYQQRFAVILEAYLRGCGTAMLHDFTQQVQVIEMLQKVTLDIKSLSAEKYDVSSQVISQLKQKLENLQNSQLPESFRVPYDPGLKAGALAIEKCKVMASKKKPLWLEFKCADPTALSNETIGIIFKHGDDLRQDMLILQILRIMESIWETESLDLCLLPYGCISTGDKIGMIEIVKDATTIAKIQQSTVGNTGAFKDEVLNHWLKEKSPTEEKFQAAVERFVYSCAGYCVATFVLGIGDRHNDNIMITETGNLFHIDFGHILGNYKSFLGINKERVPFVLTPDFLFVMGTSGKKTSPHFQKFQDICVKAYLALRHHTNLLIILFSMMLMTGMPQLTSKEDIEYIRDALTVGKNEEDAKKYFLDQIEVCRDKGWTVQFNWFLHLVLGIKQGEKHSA
T1 sequence (Q8WYR1 whole entry partner, species assumed): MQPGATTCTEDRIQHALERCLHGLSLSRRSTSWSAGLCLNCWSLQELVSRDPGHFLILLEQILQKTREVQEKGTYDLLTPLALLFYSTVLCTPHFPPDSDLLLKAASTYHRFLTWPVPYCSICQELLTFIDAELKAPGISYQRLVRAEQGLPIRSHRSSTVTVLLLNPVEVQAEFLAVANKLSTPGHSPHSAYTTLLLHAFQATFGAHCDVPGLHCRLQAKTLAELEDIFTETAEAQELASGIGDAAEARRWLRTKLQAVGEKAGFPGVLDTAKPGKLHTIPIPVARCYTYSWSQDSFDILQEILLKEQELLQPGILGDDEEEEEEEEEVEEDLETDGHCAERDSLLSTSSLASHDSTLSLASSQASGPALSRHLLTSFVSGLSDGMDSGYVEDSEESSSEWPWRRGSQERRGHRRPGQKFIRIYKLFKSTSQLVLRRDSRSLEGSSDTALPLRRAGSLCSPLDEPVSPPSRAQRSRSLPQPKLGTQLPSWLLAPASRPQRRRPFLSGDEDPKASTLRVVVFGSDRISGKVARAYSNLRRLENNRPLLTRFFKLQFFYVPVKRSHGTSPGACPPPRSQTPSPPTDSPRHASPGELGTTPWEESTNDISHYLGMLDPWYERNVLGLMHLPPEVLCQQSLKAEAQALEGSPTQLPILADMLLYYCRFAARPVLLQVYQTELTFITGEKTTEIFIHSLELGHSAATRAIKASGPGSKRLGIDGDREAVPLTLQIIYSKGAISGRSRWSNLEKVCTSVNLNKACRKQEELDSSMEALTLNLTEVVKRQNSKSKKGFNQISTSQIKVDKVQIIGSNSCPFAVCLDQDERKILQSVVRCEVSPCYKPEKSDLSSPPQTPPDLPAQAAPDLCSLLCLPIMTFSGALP

What is called pIC50 is −log10 of the IC50, conventionally taken in molar units. Consider `COc1cc2c(Oc3ccc(Cl)c(Cl)c3)c(C(=O)Nc3nn[nH]n3)sc2cc1C` [Example B.44, 3-(3,4-Dichloro-phenoxy)-5-methoxy-6-methyl-benzo[b]thiophene-2-carboxylic acid (2H-tetrazol-5-yl)-amide], for which the pIC50 is 6.78.

Regarding `COc1cc2c(Oc3ccc(OC(F)(F)F)cc3)c(C(=O)Nc3nn[nH]n3)sc2cc1C` [Example B.45, 5-Methoxy-6-methyl-3-(4-trifluoromethoxy-phenoxy)-benzo[b]thiophene-2-carboxylic acid (2H-tetrazol-5-yl)-amide], the pIC50 is 7.77.

As to `COc1cc2c(Oc3cccnc3)c(C(=O)Nc3nn[nH]n3)sc2cc1C` [Example B.46, 5-Methoxy-6-methyl-3-(pyridin-3-yloxy)-benzo[b]thiophene-2-carboxylic acid (2H-tetrazol-5-yl)-amide], the pIC50 is 6.92.

In the case of `COc1cc2c(Oc3ccc(S(C)(=O)=O)cc3)c(C(=O)Nc3nn[nH]n3)sc2cc1C` [Example B.47, 3-(4-Methanesulfonyl-phenoxy)-5-methoxy-6-methyl-benzo[b]thiophene-2-carboxylic acid (2H-tetrazol-5-yl)-amide], the pIC50 was 7.24.

Turning to `COc1cc2c(Oc3ccc(C4CCC(C)C4)cc3)c(C(=O)Nc3nn[nH]n3)sc2cc1C` (stereo not shown) [Example B.49, 5-Methoxy-6-methyl-3-[4-(3-methyl-cyclopentyl)-phenoxy]-benzo[b]thiophene-2-carboxylic acid (2H-tetrazol-5-yl)-amide], the pIC50 was 7.15.

`COc1cc2c(Oc3ccc(OC4CCC(C)C4)cc3)c(C(=O)Nc3nn[nH]n3)sc2cc1C` (stereo not shown) [Example B.50, 5-Methoxy-6-methyl-3-[4-(3-methyl-cyclopentyloxy)-phenoxy]-benzo[b]thiophene-2-carboxylic acid (2H-tetrazol-5-yl)-amide]: the pIC50 is 7.29.

As to `COc1cc2c(Oc3ccc(Cl)cc3)c(C(=O)Nc3nn[nH]n3)sc2cc1C` [Example B.51, 3-(4-Chloro-phenoxy)-5-Methoxy-6-methyl-benzo[b]thiophene-2-carboxylic acid (2H-tetrazol-5-yl)-amide], the pIC50 is 7.21.

On to `CCCCC1CCCC(c2ccc(Oc3c(C(=O)Nc4nn[nH]n4)sc4cc(C)c(OC)cc34)cc2)C1` (stereo not shown) [Example B.52, 3-[4-(3-Butyl-cyclohexyl)-phenoxy]-5-methoxy-6-methyl-benzo[b]thiophene-2-carboxylic acid (2H-tetrazol-5-yl)-amide], for which the pIC50 was 5.88.

Turning to `COc1cc2c(Oc3ccc(C4CCC(C)(C)CC4)cc3)c(C(=O)Nc3nn[nH]n3)sc2cc1C` [Example B.55, 3-[4-(4,4-Dimethyl-cyclohexyl)-phenoxy]-5-methoxy-6-methyl-benzo[b]thiophene-2-carboxylic acid (2H-tetrazol-5yl)-amide], the pIC50 is 6.99.

For `COc1cc2c(Oc3ccc(C4CCCCCC4)cc3)c(C(=O)Nc3nn[nH]n3)sc2cc1C` [Example B.57, 3-(4-cycloheptyl-phenoxy)-5-methoxy-6-methyl-benzo[b]thiophene-2-carboxylic acid (2H-tetrazol-5-yl)amide], the pIC50 is 7.40.

For the compound `COc1cc2c(Oc3ccc(C4CCCC4)cc3)c(C(=O)Nc3nn[nH]n3)sc2cc1C` [Example B.58, 3-(4-cyclopentyl-phenoxy)-5-methoxy-6-methyl-benzo[b]thiophene-2-carboxylic acid (2H-tetrazol-5-yl)amide], the pIC50 is 7.46.

As for `COCC1(c2ccc(Oc3c(C(=O)Nc4nn[nH]n4)sc4cc(C)c(OC)cc34)cc2)CCCC1` [Example B.59, 5-Methoxy-3-[4-(1-methoxymethyl-cyclopentyl)-phenoxy]-6-methyl-benzo[b]thiophene-2-carboxylic acid (2H-tetrazol-5-yl)-amide], the pIC50 is 7.60.

For the compound `COc1cc2c(Oc3ccc(C4CCC(=O)CC4)cc3)c(C(=O)Nc3nn[nH]n3)sc2cc1C` [Example B.60, 5-Methoxy-6-methyl-3-[4-(4-oxo-cyclohexyl)-phenoxy]-benzo[b]thiophene-2-carboxylic acid (2H-tetrazol-5-yl)-amide], the pIC50 was 7.66.

On to `COc1cc2c(Oc3ccc(C4(C(N)=O)CCCC4)cc3)c(C(=O)Nc3nn[nH]n3)sc2cc1C` [Example B.64, 3-[4-(1-carbamoyl-cyclopentyl)-phenoxy]-5-methoxy-6-methyl-benzo[b]thiophene-2-carboxylic acid (2H-tetrazol-5-yl)-amide], for which the pIC50 was 8.05.

Consider `COc1cc2c(Oc3ccc(C4CCC5(CC4)OCCO5)cc3)c(C(=O)Nc3nn[nH]n3)sc2cc1C` [Example B.68, 3-[4-(1,4-Dioxa-spiro[4.5]dec-8-yl)-phenoxy]-5-methoxy-6-methyl-benzo[b]thiophene-2-carboxylic acid (2H-tetrazol-5-yl)-amide], for which the pIC50 is 8.10.

For `COc1cc2c(Oc3ccc(C4CCS(=O)(=O)CC4)cc3)c(C(=O)Nc3nn[nH]n3)sc2cc1C` [Example B.69, 3-[4-(1,1-Dioxo-hexahydro-1λ^6-thiopyran-4-yl)-phenoxy]-5-methoxy-6-methyl-benzo[b]thiophene-2-carboxylic acid (2H-tetrazol-5-yl)-amide], the pIC50 was 8.40.

For the compound `COc1cc2c(Oc3ccc(C4CCCCC4)cc3[N+](=O)[O-])c(C(=O)Nc3nn[nH]n3)sc2cc1C` [Example B.70, 5-Methoxy-6-methyl-3-(2-nitro-4-cyclohexyl-phenoxy)-benzo[b]thiophene-2-carboxylic acid (2H-tetrazol-5-yl)-amide], the pIC50 was 7.77.

For the compound `COc1cc2c(Oc3ccc(C4CCCCC4)cc3N)c(C(=O)Nc3nn[nH]n3)sc2cc1C` [Example B.71, 3-(2-Amino-4-cyclohexyl-phenoxy)-5-methoxy-6-methyl-benzo[b]thiophene-2-carboxylic acid (2H-tetrazol-5-yl)-amide], the pIC50 was 6.56.

On to `COc1cc2c(Oc3ccc(C4CCCCC4)cc3OC)c(C(=O)Nc3nn[nH]n3)sc2cc1C` [Example B.72, 3-(2-Methoxy-4-cyclohexyl-phenoxy)-5-methoxy-6-methyl-benzo[b]thiophene-2-carboxylic acid (2H-tetrazol-5-yl)-amide], for which the pIC50 is 6.80.

With `COc1cc2c(Oc3ccc(C4CCCCC4)cc3Cl)c(C(=O)Nc3nn[nH]n3)sc2cc1C` [Example B.73, 3-(2-Chloro-4-cyclohexyl-phenoxy)-5-methoxy-6-methyl-benzo[b]thiophene-2-carboxylic acid (2H-tetrazol-5-yl)-amide], the pIC50 is 7.89.

As to `COc1cc2c(Oc3ccc(C4CCCCC4)cc3Br)c(C(=O)Nc3nn[nH]n3)sc2cc1C` [Example B.74, 3-(2-Bromo-4-cyclohexyl-phenoxy)-5-methoxy-6-methyl-benzo[b]thiophene-2-carboxylic acid (2H-tetrazol-5-yl)-amide], the pIC50 is 7.92.

Consider `COc1cc2c(Oc3ccc(C4CCCCC4)cc3C#N)c(C(=O)Nc3nn[nH]n3)sc2cc1C` [Example B.75, 3-(2-Cyano-4-cyclohexyl-phenoxy)-5-methoxy-6-methyl-benzo[b]thiophene-2-carboxylic acid (2H-tetrazol-5-yl)-amide], for which the pIC50 is 8.22.

Regarding `COc1cc2sc(C(=O)Nc3nnn[nH]3)c(OCCc3ccccc3)c2cc1OC` [Example C.1, 5,6-Dimethoxy-3-phenethyloxy-benzo[b]thiophene-2-carboxylic acid (1H-tetrazol-5-yl)-amide], the pIC50 is 6.73.

As to `COc1cc2sc(C(=O)Nc3nnn[nH]3)c(OCc3cccc(Br)c3)c2cc1OC` [Example C.2, 3-(3-Bromo-benzyloxy)-5,6-dimethoxy-benzo[b]thiophene-2-carboxylic acid (1H-tetrazol-5-yl)-amide], the pIC50 was 6.46.

On to `COc1cc2sc(C(=O)Nc3nnn[nH]3)c(OCc3ccc(F)c(F)c3)c2cc1OC` [Example C.3, 3-(3,4-Difluoro-benzyloxy)-5,6-dimethoxy-benzo[b]thiophene-2-carboxylic acid (1H-tetrazol-5-yl)-amide], for which the pIC50 was 5.44.

Consider `COc1cc2sc(C(=O)Nc3nnn[nH]3)c(OCc3ccc(-c4ccccc4)cc3)c2cc1OC` [Example C.4, 3-(Biphenyl-4-ylmethoxy)-5,6-dimethoxy-benzo[b]thiophene-2-carboxylic acid (1H-tetrazol-5-yl)-amide], for which the pIC50 was 5.58.

For the compound `COc1cc2sc(C(=O)Nc3nnn[nH]3)c(OCc3cccc(C(F)(F)F)c3)c2cc1OC` [Example C.5, 5,6-Dimethoxy-3-(3-trifluoromethyl-benzyloxy)-benzo[b]thiophene-2-carboxylic acid (1H-tetrazol-5-yl)-amide], the pIC50 is 5.79.

In the case of `COc1cc(COc2c(C(=O)Nc3nnn[nH]3)sc3cc(OC)c(OC)cc23)cc(OC)c1` [Example C.6, 3-(3,5-Dimethoxy-benzyloxy)-5,6-dimethoxy-benzo[b]thiophene-2-carboxylic acid (1H-tetrazol-5-yl)-amide], the pIC50 is 5.82.

As to `COc1cc2sc(C(=O)Nc3nnn[nH]3)c(OCc3ccc(C(C)(C)C)cc3)c2cc1OC` [Example C.7, 3-(4-tert-Butyl-benzyloxy)-5,6-dimethoxy-benzo[b]thiophene-2-carboxylic acid (1H-tetrazol-5-yl)-amide], the pIC50 was 6.01.

`COc1cc2sc(C(=O)Nc3nnn[nH]3)c(OCc3c(F)ccc(F)c3F)c2cc1OC` [Example C.8, 5,6-Dimethoxy-3-(2,3,6-trifluoro-benzyloxy)-benzo[b]thiophene-2-carboxylic acid (1H-tetrazol-5-yl)-amide]: the pIC50 was 6.25.

On to `COc1cc2sc(C(=O)Nc3nnn[nH]3)c(O[C@H](C)Cc3ccccc3)c2cc1OC` [Example C.10, 5,6-Dimethoxy-3-((R)-1-methyl-2-phenyl-ethoxy)-benzo[b]thiophene-2-carboxylic acid (1H-tetrazol-5-yl)-amide], for which the pIC50 was 5.74.
